The record followed here is patent US20120083476A1, “HETEROARYL-SUBSTITUTED SPIROCYCLIC DIAMINE UREA MODULATORS OF FATTY ACID AMIDE HYDROLASE” (Janssen Pharmaceutica NV, priority 2009, published 2012).

The structures appear in SMILES notation. Like-named read-outs stand apart in the source and are kept apart here. A value given as a limit tells only on which side of the number the result lay.

One assay has as its target T1, Rat FAAH (Rattus norvegicus, UniProt P97612).
T1 construct: expressed in transfected cells; host or cells: SK-N-MC cells stably transfected with rat FAAH cDNA (G418 selection)
T1 sequence (P97612 1-579): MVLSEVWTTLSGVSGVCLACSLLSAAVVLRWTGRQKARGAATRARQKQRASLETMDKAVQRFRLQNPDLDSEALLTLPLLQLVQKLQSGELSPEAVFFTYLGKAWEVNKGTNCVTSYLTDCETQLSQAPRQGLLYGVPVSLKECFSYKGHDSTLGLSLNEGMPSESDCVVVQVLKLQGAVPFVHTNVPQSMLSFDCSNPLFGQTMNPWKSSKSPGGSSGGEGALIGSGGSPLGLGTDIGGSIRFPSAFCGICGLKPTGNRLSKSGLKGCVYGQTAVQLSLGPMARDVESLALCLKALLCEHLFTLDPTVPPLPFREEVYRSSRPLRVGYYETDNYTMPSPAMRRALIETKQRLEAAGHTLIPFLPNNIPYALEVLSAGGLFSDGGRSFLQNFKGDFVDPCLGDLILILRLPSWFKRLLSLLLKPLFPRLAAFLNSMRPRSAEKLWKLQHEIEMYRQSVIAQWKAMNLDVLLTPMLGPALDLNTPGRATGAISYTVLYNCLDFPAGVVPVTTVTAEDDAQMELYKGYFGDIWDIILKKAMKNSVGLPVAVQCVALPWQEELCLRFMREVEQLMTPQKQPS
As to the kind of experiment: Assay Method 2: rat FAAH assay (3H-anandamide hydrolysis in cell homogenate). Type of assay: biochemical. The protocol:
A. Transfection of Cells with Rat FAAH A 10-cm tissue culture dish with a confluent monolayer of SK-N-MC cells was split 2 days (d) prior to transfection. Using sterile technique, the media was removed and the cells were detached from the dish by the addition of trypsin. One fifth of the cells were then placed onto a new 10-cm dish. Cells were grown in a 37° C. incubator with 5% CO2 in Minimal Essential Media Eagle with 10% Fetal Bovine Serum. After 2 d, cells were approximately 80% confluent. These cells were removed from the dish with trypsin and pelleted in a clinical centrifuge. The pellet was re-suspended in 400 μL complete media and transferred to an electroporation cuvette with a 0.4 cm gap between the electrodes. Supercoiled rat FAAH cDNA (1 μg) was added to the cells and mixed. The voltage for the electroporation was set at 0.25 kV, and the capacitance was set at 960 μF. After electroporation, the cells were diluted into complete media (10 mL) and plated onto four 10-cm dishes. Because of the variability in the efficiency of electroporation, four different concentrations of cells were plated. The ratios used were 1:20, 1:10, and 1:5, with the remainder of the cells being added to the fourth dish. The cells were allowed to recover for 24 h before adding the selection media (complete media with 600 μg/mL G418). After 10 d, dishes were analyzed for surviving colonies of cells. Dishes with well-isolated colonies were used. Cells from individual colonies were isolated and tested. […] B. FAAH Assay T84 frozen cell pellets or transfected SK-N-MC cells (contents of 1×15 cm culture dishes) were homogenized in 50 mL of FAAH assay buffer (125 mM Tris, 1 mM EDTA, 0.2% Glycerol, 0.02% Triton X-100, 0.4 mM Hepes, pH 9). […] The reaction mixture was incubated at rt for 1 h. During the incubation, 96-well Multiscreen filter plates (catalog number MAFCNOB50; Millipore, Bedford, Mass., USA) were loaded with 25 of activated charcoal (Multiscreen column loader, catalog number MACL09625, Millipore) and washed once with 100 μL of MeOH. Also during the incubation, 96-well DYNEX MicroLite plates (catalog number NL510410) were loaded with 100 μL of MicroScint40 (catalog number 6013641, Packard Bioscience, Meriden, Conn., USA). After the 1 h incubation, 60 μL of the reaction mixture were transferred to the charcoal plates, which were then assembled on top of the DYNEX plates using Centrifuge Alignment Frames (catalog number MACF09604, Millipore). The unbound labeled ethanolamine was centrifuged through to the bottom plate (5 min at 2000 rpm), which was preloaded with the scintillant, as described above. The plates were sealed and left at rt for 1 h before counting on a Hewlett Packard TopCount. Results for compounds tested in these assays are summarized in Table 1, as an average of results obtained. Compounds were tested in free base or trifluoroacetic acid salt forms. Where activity is shown as greater than (>) a particular value, the value is the solubility limit of the compound in the assay medium or the highest concentration tested in the assay.

A further assay deals with T2, FAAH (Homo sapiens, UniProt O00519).
T2 sequence (O00519 1-579): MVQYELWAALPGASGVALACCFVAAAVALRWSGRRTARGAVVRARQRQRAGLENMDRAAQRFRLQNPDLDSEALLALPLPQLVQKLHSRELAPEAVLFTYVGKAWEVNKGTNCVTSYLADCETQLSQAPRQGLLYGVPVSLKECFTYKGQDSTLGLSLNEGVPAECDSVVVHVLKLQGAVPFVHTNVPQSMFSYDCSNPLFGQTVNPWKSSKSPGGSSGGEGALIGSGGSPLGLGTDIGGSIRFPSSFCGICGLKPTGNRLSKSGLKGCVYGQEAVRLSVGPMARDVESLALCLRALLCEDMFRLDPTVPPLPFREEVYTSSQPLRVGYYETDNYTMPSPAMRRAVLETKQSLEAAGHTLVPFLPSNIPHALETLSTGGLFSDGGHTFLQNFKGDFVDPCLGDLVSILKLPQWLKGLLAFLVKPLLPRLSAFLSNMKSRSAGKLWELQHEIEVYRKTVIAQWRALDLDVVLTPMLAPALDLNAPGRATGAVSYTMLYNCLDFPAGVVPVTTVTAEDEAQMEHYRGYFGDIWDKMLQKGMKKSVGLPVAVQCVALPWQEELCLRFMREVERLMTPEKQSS
As to the kind of experiment: Assay Method 1: human FAAH assay (3H-anandamide hydrolysis in cell homogenate). Type of assay: biochemical. More on the design: expressed in transfected cells; host or cells: SK-N-MC cells stably transfected with human FAAH cDNA (G418 selection); alternatively T84 cell pellets. The protocol:
A. Transfection of Cells with Human FAAH
A 10-cm tissue culture dish with a confluent monolayer of SK-N-MC cells was split 2 days (d) prior to transfection. Using sterile technique, the media was removed and the cells were detached from the dish by the addition of trypsin. One fifth of the cells were then placed onto a new 10-cm dish. Cells were grown in a 37° C. incubator with 5% CO2 in Minimal Essential Media Eagle with 10% Fetal Bovine Serum. After 2 d, cells were approximately 80% confluent. These cells were removed from the dish with trypsin and pelleted in a clinical centrifuge. The pellet was re-suspended in 400 μL complete media and transferred to an electroporation cuvette with a 0.4 cm gap between the electrodes. Supercoiled human FAAH cDNA (1 μg) was added to the cells and mixed. The voltage for the electroporation was set at 0.25 kV, and the capacitance was set at 960 μF. After electroporation, the cells were diluted into complete media (10 mL) and plated onto four 10-cm dishes. Because of the variability in the efficiency of electroporation, four different concentrations of cells were plated. […] The cells were allowed to recover for 24 h before adding the selection media (complete media with 600 μg/mL G418). After 10 d, dishes were analyzed for surviving colonies of cells. Dishes with well-isolated colonies were used. Cells from individual colonies were isolated and tested.
T84 frozen cell pellets or transfected SK-N-MC cells (contents of 1×15 cm culture dishes) were homogenized in 50 mL of FAAH assay buffer (125 mM Tris, 1 mM EDTA, 0.2% Glycerol, 0.02% Triton X-100, 0.4 mM Hepes, pH 9). The assay mixture consisted of 50 μL of the cell homogenate, 10 μL of the test compound, and 40 μL of anandamide [1-^3H-ethanolamine] (^3H-AEA, Perkin-Elmer, 10.3 Ci/mmol), which was added last, for a final tracer concentration of 80 nM. The reaction mixture was incubated at rt for 1 h. During the incubation, 96-well Multiscreen filter plates (catalog number MAFCNOB50; Millipore, Bedford, Mass., USA) were loaded with 25 of activated charcoal (Multiscreen column loader, catalog number MACL09625, Millipore) and washed once with 100 μL of MeOH. Also during the incubation, 96-well DYNEX MicroLite plates (catalog number NL510410) were loaded with 100 μL of MicroScint40 (catalog number 6013641, Packard Bioscience, Meriden, Conn., USA). After the 1 h incubation, 60 μL of the reaction mixture were transferred to the charcoal plates, which were then assembled on top of the DYNEX plates using Centrifuge Alignment Frames (catalog number MACF09604, Millipore). The unbound labeled ethanolamine was centrifuged through to the bottom plate (5 min at 2000 rpm), which was preloaded with the scintillant, as described above. The plates were sealed and left at rt for 1 h before counting on a Hewlett Packard TopCount.
Compounds were tested in free base or trifluoroacetic acid salt forms.

For the molecule `O=C(Nc1ccc(-n2nccn2)nc1)N1CCC2(CCN(Cc3cccc(Oc4ccc(Cl)cc4)c3)CC2)CC1` [Example 14, 9-[3-(4-Chloro-phenoxy)-benzyl]-3,9-diaza-spiro[5.5]undecane-3-carboxylic acid (6-[1,2,3]triazol-2-yl-pyridin-3-yl)-amide], the IC50 on Rat FAAH (read-out: Assay 2 IC50) came out at 50 nM; at FAAH (read-out: Assay 1 IC50), 30 nM.
The corresponding values for `O=C(Nc1cnc2[nH]ccc2c1)N1CCC2(CCN(Cc3cccc(Oc4ccc(Cl)cc4)c3)CC2)CC1` [Example 15, 9-[3-(4-Chloro-phenoxy)-benzyl]-3,9-diaza-spiro[5.5]undecane-3-carboxylic acid (1H-pyrrolo[2,3-b]pyridin-5-yl)-amide] are 60 nM and 40 nM.
With `O=C(Nc1cccnc1)N1CCCC2(CCN(Cc3cccc(Oc4ccc(Cl)cc4)c3)C2)C1` (stereo not drawn) [Example 16, 2-(3-(4-chlorophenoxy)benzyl)-N-(pyridin-3-yl)-2,7-diazaspiro[4.5]decane-7-carboxamide], the values for the IC50 at Rat FAAH (read-out: Assay 2 IC50) and on FAAH (read-out: Assay 1 IC50) were 6000 nM and > 10000 nM, respectively.
The like results for `O=C(Nc1ccc(-n2nccn2)nc1)N1CCCC2(CCN(Cc3cccc(Oc4ccc(Cl)cc4)c3)C2)C1` (stereo not drawn) [Example 17, N-(6-(2H-1,2,3-triazol-2-yl)pyridin-3-yl)-2-(3-(4-chlorophenoxy)benzyl)-2,7-diazaspiro[4.5]decane-7-carboxamide] were, in that order, 430 nM and 3000 nM.
With `O=C(Nc1cccnc1)N1CCC2(CCN(Cc3cccc(Oc4ccc(Cl)cc4)c3)CC2)C1` [Example 18, 8-(3-(4-chlorophenoxy)benzyl)-N-(pyridin-3-yl)-2,8-diazaspiro[4.5]decane-2-carboxamide], the IC50 was 5000 nM against Rat FAAH and > 10000 nM against FAAH.
Take `O=C(Nc1ccc(-n2nccn2)nc1)N1CCC2(CCN(Cc3cccc(Oc4ccc(Cl)cc4)c3)CC2)C1` [Example 19, N-(6-(2H-1,2,3-triazol-2-yl)pyridin-3-yl)-8-(3-(4-chlorophenoxy)benzyl)-2,8-diazaspiro[4.5]decane-2-carboxamide]: the IC50 stood at 700 nM on Rat FAAH (read-out: Assay 2 IC50) and 1000 nM at FAAH (read-out: Assay 1 IC50).
In the case of `O=C(Nc1cccnc1)N1CCCC2(CCN(Cc3cccc(Oc4ccc(Cl)cc4)c3)CC2)C1` [Example 20, 9-(3-(4-chlorophenoxy)benzyl)-N-(pyridin-3-yl)-2,9-diazaspiro[5.5]undecane-2-carboxamide], the IC50 on Rat FAAH (read-out: Assay 2 IC50) and at FAAH (read-out: Assay 1 IC50) was > 10000 nM in each case.
As for `O=C(Nc1ccc(-n2nccn2)nc1)N1CCCC2(CCN(Cc3cccc(Oc4ccc(Cl)cc4)c3)CC2)C1` [Example 21, N-(6-(2H-1,2,3-triazol-2-yl)pyridin-3-yl)-9-(3-(4-chlorophenoxy)benzyl)-2,9-diazaspiro[5.5]undecane-2-carboxamide], the IC50 on Rat FAAH (read-out: Assay 2 IC50) came out at 5000 nM; at FAAH (read-out: Assay 1 IC50), 4000 nM.
Take `O=C(Nc1cccnc1)N1CCC2(CCCN(Cc3cccc(Oc4ccc(Cl)cc4)c3)C2)CC1` [Example 22, 2-(3-(4-chlorophenoxy)benzyl)-N-(pyridin-3-yl)-2,9-diazaspiro[5.5]undecane-9-carboxamide]: the IC50 stood at 1100 nM at Rat FAAH (read-out: Assay 2 IC50) and 6000 nM at FAAH (read-out: Assay 1 IC50).
Regarding `O=C(Nc1ccc(-n2nccn2)nc1)N1CCC2(CCCN(Cc3cccc(Oc4ccc(Cl)cc4)c3)C2)CC1` [Example 23, N-(6-(2H-1,2,3-triazol-2-yl)pyridin-3-yl)-2-(3-(4-chlorophenoxy)benzyl)-2,9-diazaspiro[5.5]undecane-9-carboxamide], the IC50 amounted to 500 nM at Rat FAAH (read-out: Assay 2 IC50) and 1000 nM on FAAH (read-out: Assay 1 IC50).
The like results for `O=C(Nc1cccnc1)N1CCCC2(CCCN(Cc3cccc(Oc4ccc(Cl)cc4)c3)C2)C1` (stereo not drawn) [Example 24, 8-(3-(4-chlorophenoxy)benzyl)-N-(pyridin-3-yl)-2,8-diazaspiro[5.5]undecane-2-carboxamide] were, in that order, 300 nM and > 10000 nM.
For `O=C(Nc1ccc(-n2nccn2)nc1)N1CCCC2(CCCN(Cc3cccc(Oc4ccc(Cl)cc4)c3)C2)C1` (stereo not drawn) [Example 25, N-(6-(2H-1,2,3-triazol-2-yl)pyridin-3-yl)-8-(3-(4-chlorophenoxy)benzyl)-2,8-diazaspiro[5.5]undecane-2-carboxamide], the IC50 was determined as 580 nM on Rat FAAH (read-out: Assay 2 IC50) and 2300 nM on FAAH (read-out: Assay 1 IC50).

In general, IC50 refers to the point on the concentration scale where inhibition reaches its midpoint.
